These results are taken from US20050267133A1, “Pyrazolopyrimidines as kinase inhibitors” (priority 2002, published 2005).

For one experiment, the target named is GSK-3β (Homo sapiens, UniProt P49841). Description: GSK3 scintillation proximity assay (SPA) kinase assay. The format is biochemical. Conditions: 20 nM kinase, 2.5 uM ATP, biotinylated glycogen synthase peptide, 40 minutes at room temperature; -log IC50 in Molar; read-out: GSK-3 pIC50 (converted). From the text:
The phosphorylated biotinylated peptide is then captured onto streptavidin coated scintillation proximity assay (SPA) beads from Amersham Technology, where the signal from the ^33P is amplified via the scintillant contained in the beads.
GSK-3β is commercially available or may be cloned and expressed in E. coli using standard techniques to produce soluble, active protein. The production of active protein involves purification in two steps using Metal Chelate and Ion Exchange Chromatography. Protein eluting from Ion Exchange provides >90% pure product that may then be concentrated for use in high throughput screening.
The kinase was assayed at a concentration of 20 nM final in 100 mM HEPES, pH 7.2 containing 10 mM magnesium chloride, 0.1 mg/mL bovine serum albumin, 1 mM dithiothreitol, 0.3 mg/mL heparin, 2.8 uM peptide substrate, 2.5 uM ATP, and 0.2 uCi/well [[…]-^33P]-ATP. After 40 minutes incubation at room temperature, the reaction was stopped by addition of 100 mM EDTA and […] in 100 mM HEPES, pH7.2 followed by an additional solution of diluted Streptavidin coated SPA beads in PBS, pH 7.2 to give a final concentration of 0.25 mg of beads per assay well in a 96-well microtiter plate.
10 mM stock solutions of the compounds of the invention in 100% DMSO are generated as a first step in the screening process. The second step involves the creation of dose response plates where these compounds are diluted 10-fold in 100% DMSO to 1 mM concentrations and subsequently serially diluted 3-fold in 100% DMSO across the plate by automated liquid handling such that the final top concentration of inhibitor is 0.033 mM in the 30 uL kinase assay. The third step involves the creation of the assay plates. This is achieved by transferring 1 uL of the compounds to assay plates by automated liquid handling. The fourth step is to perform the assay as described and count the resulting plates in the Packard TopCount NXT microplate scintillation and luminescence counter.
The final step is data acquisition and analysis where IC50 values are generated for each compound by normalizing curve data to the equation 100*(U1−C2)/(C1−C2) (where U1 is the cpm value, C2 is the background, and C1 is the maximum number of counts), then fitting the normalized data to the equation y=Vmax*(1−(x/(K+x))). The IC50 values were converted to pIC50 values, i.e., −log IC50 in Molar concentration. The data is expressed below in Table 1.
For orientation: In a scintillation proximity assay essentially only radioactivity close to the scintillant gives light.

In experiment [1] the target is T1, GST-TIE2 (intracellular domains of human TIE2) (Homo sapiens, UniProt Q02763).
T1 construct: made in house
Description: TIE-2 Enzyme Assay (TIE2-E), LANCE method. It is filed as biochemical. The settings on record: preactivated GST-TIE2, 1 μM D1-15 peptide, 80 uM ATP, 30 mins at room temperature; pIC50 = -log IC50 in Molar. An excerpt:
The TIE-2 enzyme assay used the LANCE method (Wallac) and GST-TIE2, baculovirus expressed recombinant constructs of the intracellular domains of human TIE2 (amino acids 762-1104, GenBank Accession # L06139) tagged by GST). The method measured the ability of the purified enzymes to catalyse the transfer of the γ-phosphate from ATP onto tyrosine residues in a biotinylated synthetic peptide, D1-15 (biotin-C6-LEARLVAYEGWVAGKKKamide). This peptide phosphorylation was detected using the following procedure: for enzyme preactivation, GST-TIE2 was incubated for 30 mins at room temperature with 2 mM ATP, 5 mM MgCl2 and 12.5 mM DTT in 22.5 mM HEPES buffer (pH7.4). Preactivated GST-TIE2 was incubated for 30 mins at room temperature in 96 well plates with 1 μM D1-15 peptide, 80 uM ATP, 10 mM MgCl2, 0.1 mg/ml BSA and the test compound (diluted from a 10 mM stock in DMSO, final DMSO concentration was 2.4%) in 1 mM HEPES (pH7.4). The reaction was stopped by the addition of EDTA (final concentration 45 mM). Streptavidin linked-APC (allophycocyanin, Molecular Probe) and Europium-labeled anti-phosphorylated tyrosine antibody (Wallac) were then added at the final concentration of 17 μg/well and 2.1 μg/well, respectively. The APC signal was measured using an ARVO multilabel counter. (Wallac Berthold Japan). The percent inhibition of activity was calculated relative to blank control wells.
The concentration of test compound that inhibits 50% of activity (IC50) was interpolated using nonlinear regression (Levernberg-Marquardt) and the equation, y=Vmax (1−x/(K+x))+Y2, where “K” was equal to the IC50. The IC50 values were converted to pIC50 values, i.e., −log IC50 in Molar concentration.
Test compounds are employed in free or salt form.
For orientation: Time-resolved FRET reads energy transfer from a long-lived donor to a nearby acceptor.

Where only a bound is given, the exact number is not on record here.

Sequence of GSK-3β (P49841 whole entry, species assumed): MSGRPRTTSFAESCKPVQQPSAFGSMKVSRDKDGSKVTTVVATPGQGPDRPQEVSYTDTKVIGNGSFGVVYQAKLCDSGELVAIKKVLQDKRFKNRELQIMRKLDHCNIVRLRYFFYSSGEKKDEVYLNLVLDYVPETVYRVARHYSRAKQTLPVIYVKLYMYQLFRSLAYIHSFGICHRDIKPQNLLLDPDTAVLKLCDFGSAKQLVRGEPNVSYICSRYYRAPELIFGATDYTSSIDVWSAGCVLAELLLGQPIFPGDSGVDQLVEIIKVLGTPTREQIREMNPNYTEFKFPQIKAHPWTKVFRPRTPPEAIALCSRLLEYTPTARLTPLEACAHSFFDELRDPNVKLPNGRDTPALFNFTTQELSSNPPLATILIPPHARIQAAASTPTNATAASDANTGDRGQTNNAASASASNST
T1 sequence (Q02763 762-1104): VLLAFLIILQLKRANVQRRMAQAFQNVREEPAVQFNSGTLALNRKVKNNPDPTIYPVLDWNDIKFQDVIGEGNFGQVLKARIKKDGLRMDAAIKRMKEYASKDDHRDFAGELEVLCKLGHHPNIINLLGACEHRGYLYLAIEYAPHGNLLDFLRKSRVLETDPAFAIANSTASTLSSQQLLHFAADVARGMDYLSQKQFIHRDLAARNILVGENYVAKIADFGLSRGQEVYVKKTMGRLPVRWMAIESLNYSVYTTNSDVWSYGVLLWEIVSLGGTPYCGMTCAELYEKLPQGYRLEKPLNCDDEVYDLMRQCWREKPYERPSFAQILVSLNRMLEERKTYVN

For `Oc1cccc(/C=N/Nc2ncnc3c2cnn3-c2ccccc2)c1` [Example 6, 3-Hydroxybenzaldehyde (1-phenyl-1H-pyrazolo[3,4-d]pyrimidin-4-yl)hydrazone], the values for the IC50 (at GSK-3β; in experiment [1]) were 100 to 1000 nM and 1000 to 10000 nM, respectively.

For the compound `COc1cc(/C=N/Nc2ncnc3c2cnn3-c2ccccc2)cc(O)c1OC` [Example 7, 3-Hydroxy-4,5-dimethoxybenzaldehyde (1-phenyl-1H-pyrazolo[3,4-d]pyrimidin-4-yl)hydrazone], the IC50 was less than 100 nM on GSK-3β and 100 to 1000 nM in experiment [1].

For `NS(=O)(=O)c1ccc(/C=N/Nc2ncnc3c2cnn3-c2ccccc2)cc1` [Example 20, 4-{(E)-[(1-phenyl-1H-pyrazolo[3,4-d]pyrimidin-4-yl)hydrazonol]methyl}benzenesulfonamide], the IC50 on GSK-3β was less than 100 nM; in experiment [1] it was 100 to 1000 nM.

For `O=C(O)c1ccc(/C=N/Nc2ncnc3c2cnn3-c2ccccc2)cc1` [Example 24, 4-{(E)-[(1-phenyl-1H-pyrazolo[3,4-d]pyrimidin-4-yl)hydrazono]methyl}benzoic Acid], the IC50 (on GSK-3β; in experiment [1]) was 100 to 1000 nM in each case.

Regarding `CN(C)CCNC(=O)c1ccc(/C=N/Nc2ncnc3c2cnn3-c2ccccc2)cc1` [Example 25, N-[2-(dimethylamino)ethyl]-4-{(E)-[(1-phenyl-1H-pyrazolo[3,4-d]pyrimidin-4-yl)hydrazono]methyl}benzamide], the IC50 on GSK-3β was less than 100 nM; in experiment [1] it was 100 to 1000 nM.

Turning to `O=C(NCCCN1CCCC1)c1ccc(/C=N/Nc2ncnc3c2cnn3-c2ccccc2)cc1` [Example 26, 4-{(E)-[(1-phenyl-1H-pyrazolo[3,4-d]pyrimidin-4-yl)hydrazono]methyl}-N-(3-pyrrolidin-1-ylpropyl)benzamide], the IC50 on GSK-3β is less than 100 nM; in experiment [1] it was 100 to 1000 nM.

Regarding `O=C(NCCCN1CCOCC1)c1ccc(/C=N/Nc2ncnc3c2cnn3-c2ccccc2)cc1` [Example 27], the IC50 on GSK-3β was less than 100 nM; in experiment [1] it was 100 to 1000 nM.

With `O=C(NCCc1c[nH]cn1)c1ccc(/C=N/Nc2ncnc3c2cnn3-c2ccccc2)cc1` [Example 29, N[2-(1H-imidazol-4-yl)ethyl]-4-{(E)-[(1-phenyl-1H-pyrazolo[3,4-d]pyrimidin-4-yl)hydrazono]methyl}benzamide], the IC50 (on GSK-3β; in experiment [1]) was 100 to 1000 nM each time.

For `CN(CCc1ccccn1)C(=O)c1ccc(/C=N/Nc2ncnc3c2cnn3-c2ccccc2)cc1` [Example 30, N-Methyl-4-{(E)-[(1-phenyl-1H-pyrazolo[3,4-d]pyrimidin-4-yl)hydrazono]methyl}-N-(2-pyridin-2-ylethyl)benzamide], the IC50 (at GSK-3β; in experiment [1]) was 100 to 1000 nM in each case.

Consider `NCCNC(=O)c1ccc(/C=N/Nc2ncnc3c2cnn3-c2ccccc2)cc1` [Example 31, N-(2-Aminoethyl)-4-{(E)-[(1-phenyl-1H-pyrazolo[3,4-d]pyrimidin-4-yl)hydrazono]methyl}benzamide], for which the IC50 on GSK-3β was 100 to 1000 nM; in experiment [1], 1000 to 10000 nM.

For the compound `NCCCNC(=O)c1ccc(/C=N/Nc2ncnc3c2cnn3-c2ccccc2)cc1` [Example 32, N-(3-aminopropyl)-4-{(E)-[(1-phenyl-1H-pyrazolo[3,4-d]pyrimidin-4-yl)hydrazono]methyl}benzamide], the IC50 (on GSK-3β; in experiment [1]) was 100 to 1000 nM in each case.

Regarding `O=C(NCCN1CCCCC1)c1ccc(/C=N/Nc2ncnc3c2cnn3-c2ccccc2)cc1` [Example 33, 4-{(E)-[(1-phenyl-1H-pyrazolo[3,4-d]pyrimidin-4-yl)hydrazono]methyl}-N-(2-piperidin-1-ylethyl)benzamide], the IC50 at GSK-3β is less than 100 nM; in experiment [1] it was 100 to 1000 nM.

For `O=C(NCCN1CCCC1)c1ccc(/C=N/Nc2ncnc3c2cnn3-c2ccccc2)cc1` [Example 34, 4-{(E)-[(1-phenyl-1H-pyrazolo[3,4-d]pyrimidin-4-yl)hydrazono]methyl}-N-(2-pyrrolidin-1-ylethyl)benzamide], the IC50 (at GSK-3β; in experiment [1]) was 100 to 1000 nM each time.

With `CN(C)CCN1CCN(C(=O)c2ccc(/C=N/Nc3ncnc4c3cnn4-c3ccccc3)cc2)CC1` [Example 35, 4-({4-[2-(Dimethylamino)ethyl]piperazin-1-yl}carbonyl)benzaldehyde (1-phenyl-1H-pyrazolo[3,4-d]pyrimidin-4-yl)hydrazone], the IC50 (at GSK-3β; in experiment [1]) was 100 to 1000 nM throughout.

`COCCN1CCN(C(=O)c2ccc(/C=N/Nc3ncnc4c3cnn4-c3ccccc3)cc2)CC1` [Example 36, 4-{[4-(2-methoxyethyl)piperazin-1-yl]carbonyl}benzaldehyde (1-phenyl-1H-pyrazolo[3,4-d]pyrimidin-4-yl)hydrazone]: the IC50 (on GSK-3β; in experiment [1]) was 100 to 1000 nM each time.

Regarding `CN1CCN(CCCNC(=O)c2ccc(/C=N/Nc3ncnc4c3cnn4-c3ccccc3)cc2)CC1` [Example 37, N[3-(4-Methylpiperazin-1-yl)propyl]-4-{(E)-[(1-phenyl-1H-pyrazolo[3,4-d]pyrimidin-4-yl)hydrazono]methyl}benzamide], the IC50 (at GSK-3β; in experiment [1]) was 100 to 1000 nM each time.

Regarding `CS(=O)(=O)CCNC(=O)c1ccc(/C=N/Nc2ncnc3c2cnn3-c2ccccc2)cc1` [Example 38, N-[2-(Methylsulfonyl)ethyl]-4-{(E)-[(1-phenyl-1H-pyrazolo[3,4-d]pyrimidin-4-yl)hydrazono]methyl}benzamide], the IC50 at GSK-3β is less than 100 nM; in experiment [1], 100 to 1000 nM.

For `O=C(O)c1cccc(/C=N/Nc2ncnc3c2cnn3-c2ccccc2)c1` [Example 39, 3-{(E)-[(1-phenyl-1H-pyrazolo[3,4-d]pyrimidin-4-yl)hydrazono]methyl}benzoic Acid], the IC50 (on GSK-3β; in experiment [1]) was 1000 to 10000 nM throughout.

For the compound `COc1cc(/C=N/Nc2ncnc3c2cnn3-c2ccccc2)ccc1O` [Example 43, 4-Hydroxy-3-methoxybenzaldehyde (1-phenyl-1H-pyrazolo[3,4-d]pyrimidin-4-yl)hydrazone], the IC50 at GSK-3β was less than 100 nM; in experiment [1] it was 100 to 1000 nM.

Take `OCc1cc(/C=N/Nc2ncnc3c2cnn3-c2ccccc2)ccc1O` [Example 44, 4-Hydroxy-3-hydroxymethylbenzaldehyde (1-phenyl-1H-pyrazolo[3,4-d]pyrimidin-4-yl)hydrazone]: the IC50 (at GSK-3β; in experiment [1]) was 100 to 1000 nM throughout.

Regarding `COc1ccc(/C=N/Nc2ncnc3c2cnn3-c2ccccc2)cc1O` [Example 45, 3-Hydroxy-4-methoxybenzaldehyde (1-phenyl-1H-pyrazolo[3,4-d]pyrimidin-4-yl)hydrazone], the IC50 (on GSK-3β; in experiment [1]) was 100 to 1000 nM in each case.

`CCOc1cc(/C=N/Nc2ncnc3c2cnn3-c2ccccc2)cc(Br)c1O` [Example 46, 3-Bromo-4-hydroxy-3-ethoxybenzaldehyde (1-phenyl-1H-pyrazolo[3,4-d]pyrimidin-4-yl)hydrazone]: the IC50 on GSK-3β is 1000 to 10000 nM; in experiment [1], 100 to 1000 nM.
